Key:
Homo sapiens [1] = organism: Homo sapiens; assay: Selectivity ratio of EC50 for TGR5 N93D mutant (unknown origin) to EC50 for wild type TGR5 (unknown origin)
Homo sapiens [2] = organism: Homo sapiens; assay: Selectivity ratio of EC50 for TGR5 Y89F mutant (unknown origin) to EC50 for wild type TGR5 (unknown origin)
[3] = molecular target: T1, G-protein coupled bile acid receptor 1 (Homo sapiens, UniProt Q8TDU6); assay: Agonist activity at wild type TGR5 (unknown origin)
T1 sequence (Q8TDU6 whole entry): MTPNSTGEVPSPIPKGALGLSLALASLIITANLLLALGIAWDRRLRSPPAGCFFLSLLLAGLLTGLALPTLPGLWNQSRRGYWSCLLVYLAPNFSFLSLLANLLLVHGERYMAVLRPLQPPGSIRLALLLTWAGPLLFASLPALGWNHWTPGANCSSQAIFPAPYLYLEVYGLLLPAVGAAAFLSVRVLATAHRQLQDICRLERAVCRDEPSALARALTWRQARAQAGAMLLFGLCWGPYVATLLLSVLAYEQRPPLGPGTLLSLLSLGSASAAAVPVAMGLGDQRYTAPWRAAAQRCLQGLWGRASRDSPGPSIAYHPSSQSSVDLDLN

Homo sapiens [4] = organism: Homo sapiens; assay: Selectivity ratio of EC50 for TGR5 Y89A mutant (unknown origin) to EC50 for wild type TGR5 (unknown origin)
Homo sapiens [5] = organism: Homo sapiens; assay: Selectivity ratio of EC50 for TGR5 S270A mutant (unknown origin) to EC50 for wild type TGR5 (unknown origin)

- Ratio EC50 (Homo sapiens [1]): > 1000
- Ratio EC50 (Homo sapiens [2]): 1.7
- EC50 [3]: 1320 nM
- Ratio EC50 (Homo sapiens [4]): > 1000
- Ratio EC50 (Homo sapiens [5]): > 1000
Compound: CC[C@H]1[C@@H](O)[C@@H]2[C@H](CC[C@]3(C)[C@@H]([C@H](C)CCN)CC[C@@H]23)[C@@]2(C)CC[C@@H](O)C[C@@H]12

From ChEMBL document CHEMBL3097990, “Probing the Binding Site of Bile Acids in TGR5” (ACS Med Chem Lett, 2013)
